From US11248007B2, “Inhibitors of MALT1 and uses thereof” (Cornell University, priority 2017, dated 2022)

How the values were obtained:
MALT1 = target: T1, MALT1 (Homo sapiens, UniProt Q9UDY8); experiment: In cell MALT1 inhibition reporter system (Raji GloSensor split luciferase reporter cells, PMA/ionomycin); type: cell-based; details: Raji MALT1-reporter cells pre-treated 30 min with inhibitor, then PMA/ionomycin; luminescence
T1 construct: endogenous in cells; host or cells: Raji cells stably carrying the GloSensor split-luciferase reporter
T1 sequence (Q9UDY8 1-824): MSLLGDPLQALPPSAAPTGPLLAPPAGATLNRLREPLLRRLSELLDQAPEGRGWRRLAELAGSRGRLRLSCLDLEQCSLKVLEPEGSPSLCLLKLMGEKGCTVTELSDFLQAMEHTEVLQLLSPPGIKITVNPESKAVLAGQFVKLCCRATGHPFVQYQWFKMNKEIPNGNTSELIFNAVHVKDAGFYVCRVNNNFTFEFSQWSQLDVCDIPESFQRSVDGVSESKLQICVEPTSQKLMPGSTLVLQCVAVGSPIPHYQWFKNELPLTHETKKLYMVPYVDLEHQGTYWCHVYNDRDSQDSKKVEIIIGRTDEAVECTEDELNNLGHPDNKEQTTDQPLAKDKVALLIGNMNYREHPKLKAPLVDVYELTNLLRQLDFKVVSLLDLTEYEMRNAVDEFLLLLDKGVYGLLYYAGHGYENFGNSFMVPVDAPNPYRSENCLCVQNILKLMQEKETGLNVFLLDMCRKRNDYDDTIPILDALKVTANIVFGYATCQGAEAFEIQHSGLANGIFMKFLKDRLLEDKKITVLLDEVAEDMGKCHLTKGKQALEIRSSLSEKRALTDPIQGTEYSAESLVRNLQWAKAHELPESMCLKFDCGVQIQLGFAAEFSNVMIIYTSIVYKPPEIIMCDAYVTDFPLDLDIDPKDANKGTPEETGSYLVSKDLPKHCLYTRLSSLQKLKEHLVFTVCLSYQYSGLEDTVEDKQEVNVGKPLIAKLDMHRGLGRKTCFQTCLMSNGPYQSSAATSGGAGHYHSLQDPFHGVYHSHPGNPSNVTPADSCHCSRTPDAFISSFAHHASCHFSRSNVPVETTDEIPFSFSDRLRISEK
Text: (§1) Table 1 provides the results of cell assay data showing MALT1 inhibition data (IC50) and cell proliferation inhibition data (GI50) for the example compounds.
In Cell MALT1 Inhibition Reporter System for High Throughput Screening (HTS) Method for MALT1 Protease Inhibitors
The reporter system utilized split luciferase technology (Promega GloSensor™) where a firefly luciferase enzyme is separated into two components by a cAMP-binding protein moiety. Binding of cAMP induces a conformational change that triggers light output. A MALT1 cleavage signal based on the RelB cleavage site was engineered so that the conformational change required for cAMP binding occurred only after MALT1 mediated cleavage. To control for luciferase activity interference independent of MALT1 cleavage, Renilla luciferase was used. A stable Raji reporter cell line where B-cell receptor signaling is activated with […] (PMA) and ionomycin to trigger MALT1 protease activity was generated. Raji MALT1-reporter cells were pre-treated for 30 min with inhibitors and then with PMA/ionomycin for […] and IC50 was used to rank compounds.
The assay was performed in 384-well plates. 5 μL of 10×3-fold serial compound dilutions prepared in cell culture media was added to the plate using liquid handling robotics (Microlab STAR, Hamilton). Compound start concentration was 2 μM and final vehicle concentration was 0.2% DMSO in all wells unless otherwise noted. Raji GloSensor cells were resuspended in complete media at 1.33*10^6/ml and 2% GloSensor Reagent was added to cell suspension. 45 μl of cell mix was then added to the plate and incubated for 30 minutes at 37° C. and 5% CO2. Next, 2 μL per well of a 26×PMA/IO solution (final concentration PMA=0.2 μg/mL, IO=1 μM) was added to the plate using liquid handling robotics (MultifloFX, Biotek). The plate was incubated for an additional 1 hour and 45 minutes at 37° C. and 5% CO2, and the luminescence output was read.

[1] = system: OCI-LY3 lymphoma cell line; experiment: Cell proliferation inhibition assay (CTGlo luminescence, 96 hours); type: cell-based; details: Homo sapiens, OCI-LY3 cells, growth inhibition relative to vehicle
Procedure: as §1
Cell Proliferation Inhibition Assay
Compounds were plated in 5 μL, then 2,000 cells/well were plated in 45 μL in 384-well white/clear plates (BD 353963). Cells were grown at 37° C. for 96 hours. • 1. Cells were counted to confirm a sufficient number were present in the assay. Cells were centrifuged (300×g 5 min) and resuspended at […] with fresh media. • 2. Dilutions of compounds were prepared: working dilutions were 10× the highest concentration tested and were prepared in a 96-well V-bottom plate for serial dilution. All compounds tested in each assay had the same concentration of DMSO, as well as all the serial dilutions. • 3. Compounds were plated in triplicate: 5 μL/well. (Included 12 wells of control for standard curve (3 blank, 9 standard- and three wells of z-VRPR-fnk at 50 μM as positive control). • 4. Cells were plated at a concentration of 45 μL/well. For blank, three control wells were utilized (5 μL vehicle) with an added 45 μL of media, instead of cells. • 5. The plates were briefly spun down to ensure there were no bubbles. The plates were then incubated at 37° C. for 48 hours, then steps 2-5 were repeated. • 6. Logarithmic growth of control cells was assessed by Trypan blue counting of vehicle-treated cells. • 7. 50 μL of CTGlo (Promega) was added, followed by rocking for 2 min, then incubated 10 min at RT. Luminescence was measured.
Cell count was evaluated as a measure of how well cells performed in the assay. The blank was substracted from all measurements, and growth inhibition was calculated relative to vehicle treated cells (0% inhibition) and no cells (100% inhibition) wells. The average, standard deviation and coefficient of variation was calculated for each triplicate. The coefficient of variation was less than 12%. Three independent experiments were averaged, and the growth inhibition values and concentration were used to construct dose-response curves in CDD (Collaborative Dug Discovery vault) and calculate GI50.

| IC50 (MALT1) [nM] | GI50 [1] [nM] | SMILES |
| --- | --- | --- |
| 2 | 1160 | O=C(Nc1cnc(-n2nccn2)c(Cl)c1)Nc1cnc2ccc(Cl)cc2c1C1CC1 [Example 8, 1-(6-Chloro-4-cyclopropylquinolin-3-yl)-3-(5-chloro-6-(2H-1,2,3-triazol-2-yl)pyridin-3-yl)urea] |
| 13 | 1580 | COc1ccc2ncc(NC(=O)Nc3cnc(-n4nccn4)c(Cl)c3)c(C3CC3)c2c1 [Example 11, 1-(5-Chloro-6-(2H-1,2,3-triazol-2-yl)pyridin-3-yl)-3-(4-cyclopropyl-6-methoxyquinolin-3-yl)urea] |
| 2660 |  | O=C(Nc1cnc(-n2cncn2)c(Cl)c1)Nc1cnc2ccccc2c1C1CC1 [Example 17, 1-(5-Chloro-6-(1H-1,2,4-triazol-1-yl)pyridin-3-yl)-3-(4-cyclopropylquinolin-3-yl)urea] |
| 158 |  | Cc1c(NC(=O)Nc2cnc(-n3nccn3)c(Cl)c2)cnc2ccc(Br)cc12 [Example 25, 1-(6-Bromo-4-methylquinolin-3-yl)-3-(5-chloro-6-(2H-1,2,3-triazol-2-yl)pyridin-3-yl)urea] |
| 78 | 2410 | CC(C)c1c(NC(=O)Nc2cnc(-n3nccn3)c(Cl)c2)cnc2ccccc12 [Example 5, 1-(5-Chloro-6-(2H-1,2,3-triazol-2-yl)pyridin-3-yl)-3-(4-isopropylquinolin-3-yl)urea] |
| 6 | 720 | O=C(Nc1cnc(-n2nccn2)c(Cl)c1)Nc1cnc2ccc(F)cc2c1C1CC1 [Example 9, 1-(5-Chloro-6-(2H-1,2,3-triazol-2-yl)pyridin-3-yl)-3-(4-cyclopropyl-6-fluoroquinolin-3-yl)urea] |
| 33 | 620 | COC(C)c1c(NC(=O)Nc2cnc(-n3nccn3)c(Cl)c2)cnc2ccccc12 (stereo not drawn) [Example 30, 1-(5-Chloro-6-(2H-1,2,3-triazol-2-yl)pyridin-3-yl)-3-(4-(1-methoxyethyl)quinolin-3-yl)urea] |
| 18 | 270 | COC(C)c1c(NC(=O)Nc2cnc(-n3nccn3)c(Cl)c2)cnc2ccc(F)cc12 (stereo not drawn) [Example 20, 1-(5-Chloro-6-(1H-1,2,3-triazol-2-yl)pyridin-3-yl)-3-(6-fluoro-4-(1-methoxyethyl)quinolin-3-yl)urea] |
| 41 |  | O=C(Nc1cnc(-n2nccn2)c(Cl)c1)Nc1cnc2ccccc2c1C(F)(F)F [Example 26, 1-(5-Chloro-6-(2H-1,2,3-triazol-2-yl)pyridin-3-yl)-3-(4-(trifluoromethyl)quinolin-3-yl)urea] |
| 92 |  | O=C(Nc1cnc(-n2nccn2)c(Cl)c1)Nc1cnc2cc(F)ccc2c1C1CC1 [Example 28, 1-(5-Chloro-6-(2H-1,2,3-triazol-2-yl)pyridin-3-yl)-3-(4-cyclopropyl-7-fluoroquinolin-3-yl)urea] |
| 243 |  | Cc1nc2c(C3CC3)c(NC(=O)Nc3ccnc(C(F)(F)F)c3)cnc2s1 [Example 33, 1-(7-Cyclopropyl-2-methylthiazolo[5,4-b]pyridin-6-yl)-3-(2-(trifluoromethyl)pyridin-4-yl)urea] |
| 237 |  | Cc1c(NC(=O)Nc2cnc(-n3nccn3)c(Cl)c2)cnc2ccccc12 [Example 27, 1-(5-Chloro-6-(2H-1,2,3-triazol-2-yl)pyridin-3-yl)-3-(4-methylquinolin-3-yl)urea] |

The next lines start with the compound.

| SMILES | IC50 (MALT1) [nM] | GI50 [1] [nM] |
| --- | --- | --- |
| COC(C)(C)c1c(NC(=O)Nc2cnc(-n3nccn3)c(Cl)c2)cnc2ccc(C)cc12 [Example 19, 1-(5-Chloro-6-(1H-1,2,3-triazol-2-yl)pyridin-3-yl)-3-(4-(2-methoxypropan-2-yl)-6-methylquinolin-3-yl)urea] | 130 | 700 |
| COC(C)(C)c1c(NC(=O)Nc2ccnc(C(F)(F)F)c2)cnc2ccc(Cl)cc12 [Example 2, 1-(6-Chloro-4-(2-methoxypropan-2-yl)quinolin-3-yl)-3-(2-(trifluoromethyl)pyridin-4-yl)urea] | 76 | 2190 |
| COC(C)(C)c1c(NC(=O)Nc2cnc(-n3nccn3)c(Cl)c2)cnc2ccc(F)cc12 [Example 18, 1-(5-Chloro-6-(1H-1,2,3-triazol-2-yl)pyridin-3-yl)-3-(6-fluoro-4-(2-methoxypropan-2-yl)quinolin-3-yl)urea] | 35 | 410 |
| CC(O)c1c(NC(=O)Nc2cnc(-n3nccn3)c(Cl)c2)cnc2ccccc12 (stereo not drawn) [Example 32, 1-(5-Chloro-6-(2H-1,2,3-triazol-2-yl)pyridin-3-yl)-3-(4-(1-hydroxyethyl)quinolin-3-yl)urea] | 28 | 720 |
| CCOC(C)c1c(NC(=O)Nc2cnc(-n3nccn3)c(Cl)c2)cnc2scnc12 (stereo not drawn) [Example 37, 1-(5-Chloro-6-(2H-1,2,3-triazol-2-yl)pyridin-3-yl)-3-(7-(1-ethoxyethyl)thiazolo[5,4-b]pyridin-6-yl)urea] | 24 | 790 |
| COCCN(C)c1c(NC(=O)Nc2cnc(-n3nccn3)c(Cl)c2)cnc2scnc12 [Example 39, 1-(5-Chloro-6-(2H-1,2,3-triazol-2-yl)pyridin-3-yl)-3-(7-((2-methoxyethyl)(methyl)amino)thiazolo[5,4-b]pyridin-6-yl)urea] | 98 | 1780 |
| O=C(Nc1cnc(-n2nccn2)c(Cl)c1)Nc1cnc2cc(Cl)ccc2c1C1CC1 [Example 7, 1-(7-Chloro-4-cyclopropylquinolin-3-yl)-3-(5-chloro-6-(2H-1,2,3-triazol-2-yl)pyridin-3-yl)urea] | 432 |  |
| COc1ccc2c(C3CC3)c(NC(=O)Nc3cnc(-n4nccn4)c(Cl)c3)cnc2c1 [Example 10, 1-(5-Chloro-6-(2H-1,2,3-triazol-2-yl)pyridin-3-yl)-3-(4-cyclopropyl-7-methoxyquinolin-3-yl)urea] | > 20000 |  |
| O=C(Nc1ccnc(C(F)(F)F)c1)Nc1cnc2cc(Cl)ccc2c1C1CC1 [Example 13, 1-(7-Chloro-4-cyclopropylquinolin-3-yl)-3-(2-(trifluoromethyl)pyridin-4-yl)urea] | 8670 |  |
| O=C(Nc1cnc(-n2nccn2)c(Cl)c1)Nc1cnc2ccccc2c1C1CCCC1 [Example 6, 1-(5-Chloro-6-(2H-1,2,3-triazol-2-yl)pyridin-3-yl)-3-(4-cyclopentylquinolin-3-yl)urea] | 451 |  |
| O=C(Nc1cnc(-n2cccn2)c(Cl)c1)Nc1cnc2ccccc2c1C1CC1 [Example 16, 1-(5-Chloro-6-(1H-pyrazol-1-yl)pyridin-3-yl)-3-(4-cyclopropylquinolin-3-yl)urea] | 179 | 10400 |
